Assay results as given in patent publication US20240409536A1, “COMPOUNDS AND METHODS FOR MODULATING SPLICING” (REMIX THERAPEUTICS INC., priority 2021, published 2024).

Key:
[1] = tested on: HTT mRNA; test: Splicing RT-qPCR assay, HTT canonical (CJ) and alternative (AJ) junction mRNA; type: cell-based; settings: Homo sapiens, A673 or K562 cells, 24 hours; for IC50: decrease in canonical junction mRNA; for AC50: increase in alternative junction mRNA
In short: (§1)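 A673 (DMEM/10% FBS, plated 24 h before dosing) or K562 (IMDM/10% FBS) cells treated 24 h at 37 °C with 11-point 3-fold dilutions, top final 10 uM, DMSO ≤0.25%. Lysates analysed by one-step RT-qPCR for CJ and AJ isoforms, normalized to GAPDH/GUSB (K562) or PPIA (A673).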

[2] = tested on: HiBiT-tagged MYB protein; test: HiBiT protein abundance assay, MYB (K562 HiBiT knock-in cells); type: cell-based, human; settings: 24 hours
In short: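 K562 cells with endogenous HiBiT knock-in tag, 10-point 3-fold dilutions (top 10 μM final, ≤0.25% DMSO), 24 h at 37 °C. Lytic Nano-Glo HiBiT luminescence, normalized to DMSO and unmodified K562 baselines; IC50 is concentration giving 50% protein abundance from four-parameter fit.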

[3] = tested on: MYB mRNA; test: Splicing RT-qPCR assay, MYB canonical (CJ) and alternative (AJ) junction mRNA; type: cell-based; settings: Homo sapiens, A673 or K562 cells, 24 hours; for IC50: decrease in canonical junction mRNA; for AC50: increase in alternative junction mRNA
In short: as §1

[4] = tested on: Target C; test: HiBiT protein abundance assay, Target C (K562 HiBiT knock-in cells); type: cell-based, human; settings: 24 hours
In short: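 K562 knock-in cells (10000/well, IMDM+1% FBS) treated 24 h at 37 °C with 10-point 3-fold dilutions, top final 10 μM, DMSO ≤0.25%. HiBiT lytic luminescence read; response normalized to unmodified K562 and DMSO-treated controls. IC50 interpolated at 50% abundance by four-parameter logistic fit.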

Row | SMILES | IC50 [1] | IC50 [2] | IC50 [3] | IC50 [4] | AC50 [1] | AC50 [3]
1 | CNC1CCN(c2ccc(C(=O)Nc3cc(F)c4nc(C)cn4c3)c3nnccc23)C1 (stereo not shown) [Compound 231, N-{8-fluoro-2-methylimidazo[1,2-a]pyridin-6-yl}-5-[3-(methylamino)pyrrolidin-1-yl] cinnoline-8-carboxamide] | 1 to 10 µM | < 0.1 µM | < 0.1 µM | 1 to 10 µM | 1 to 10 µM | < 0.1 µM
2 | CNC1CCN(c2ccc(C(=O)Nc3cc(F)c4nc(C)cn4c3)c3ncc(OC)nc23)C1 (stereo in doubt) [Compound 227, (R)—N-(8-fluoro-2-methylimidazo[1,2-a]pyridin-6-yl)-2-methoxy-8-(3-(methylamino)pyrrolidin-1-yl)quinoxaline-5-carboxamide 2,2,2-trifluoroacetate] | > 10 µM | 0.1 to 1 µM | 1 to 10 µM | 0.1 to 1 µM | > 10 µM | 1 to 10 µM
3 | Cc1cn2cc(NC(=O)c3ccc(N4CCC(NC(C)(C)C)C4)c4ccnnc34)cc(F)c2n1 (stereo not shown) [Compound 109] | 1 to 10 µM | 1 to 10 µM | 1 to 10 µM | 1 to 10 µM | 1 to 10 µM | 1 to 10 µM
4 | Cc1cn2cc(NCc3ccc(N4CCNCC4)c4ccnnc34)cc(F)c2n1 [Compound 230, 8-fluoro-2-methyl-N-{[5-(piperazin-1-yl)cinnolin-8-yl]methyl}imidazo[1,2-a]pyridin-6-amine] | 1 to 10 µM | > 10 µM | > 10 µM | > 10 µM | > 10 µM | > 10 µM

Second part, led by results:

Row | IC50 [1] | IC50 [2] | IC50 [3] | IC50 [4] | SMILES | AC50 [1] | AC50 [3]
5 |  | < 0.1 µM | < 0.1 µM | 0.1 to 1 µM | Cc1cnc2c(C(=O)Nc3cc(F)c4nc(C)cn4c3)ccc(N3C[C@@H](C)N[C@@H](C)C3)c2n1 [Compound 217, 8-((3R,5S)-3,5-dimethylpiperazin-1-yl)-N-{8-fluoro-2-methylimidazo[1,2-a]pyridin-6-yl}-2-methylquinoxaline-5-carboxamide] |  | < 0.1 µM
6 | > 10 µM | < 0.1 µM | 0.1 to 1 µM | > 10 µM | COCCOc1ccc2c(N3CCC(N(C)C)CC3)ccc(C(=O)Nc3cc(F)c4nc(C)cn4c3)c2n1 [Compound 229, 5-[4-(dimethylamino)piperidin-1-yl]-N-{8-fluoro-2-methylimidazo[1,2-a]pyridin-6-yl}-2-(2-methoxyethoxy)quinoline-8-carboxamide] | > 10 µM | < 0.1 µM
7 | 0.1 to 1 µM | < 0.1 µM | < 0.1 µM | 0.1 to 1 µM | CCNC1CCN(c2ccc(C(=O)Nc3cc(F)c4nc(C)cn4c3)c3nc(C)ccc23)CC1 [Compound 228, 5-[4-(ethylamino)piperidin-1-yl]-N-{8-fluoro-2-methylimidazo[1,2-a]pyridin-6-yl}-2-methylquinoline-8-carboxamide] | 0.1 to 1 µM | 0.1 to 1 µM
8 | 1 to 10 µM | < 0.1 µM | 0.1 to 1 µM | 1 to 10 µM | CCNC1CCN(c2ccc(C(=O)Nc3cc(F)c4nc(C)cn4c3)c3nc(OCCOC)ccc23)CC1 [Compound 233, 5-[4-(ethylamino)piperidin-1-yl]-N-{8-fluoro-2-methylimidazo[1,2-a]pyridin-6-yl}-2-(2-methoxyethoxy)quinoline-8-carboxamide] | 1 to 10 µM | 0.1 to 1 µM
9 | 1 to 10 µM | < 0.1 µM | 0.1 to 1 µM | 1 to 10 µM | COCCOc1ccc2c(N3C[C@@H](C)N[C@@H](C)C3)ccc(C(=O)Nc3cc(F)c4nc(C)cn4c3)c2n1 [Compound 232, 5-[(3R,5S)-3,5-dimethylpiperazin-1-yl]-N-{8-fluoro-2-methylimidazo[1,2-a]pyridin-6-yl}-2-(2-methoxyethoxy)quinoline-8-carboxamide] | 1 to 10 µM | 0.1 to 1 µM
